From article PMC10542788, “Discovery of a cystathionine γ-lyase (CSE) selective inhibitor targeting active-site pyridoxal 5′-phosphate (PLP) via Schiff base formation” (Scientific Reports, 2023) come the findings set out here.

Assay type in all cases: biochemical
One test has as its target rCSE (Rattus norvegicus, UniProt P18757). Briefly: rCSE inhibition, H2S detection by gas chromatography. The settings on record: 1.5 mM cysteine, 100 μM PLP, mean ± S.E., read-out: IC50, inhibition of H2S production by rCSE. Further details: His-tag (C); made in house; host or cells: E. coli BL21. Here is the method: Next, in order to further confirm the CSE-inhibitory ability of 1, we employed a gas chromatographic method. A mixture of 30 μg/mL rCSE, 100 μM PLP and 1.5 mM cysteine in 30 mM HEPES buffer (pH 7.4) with or without 1 or PAG was incubated in a sealed glass vial, and the air containing enzymatically produced H2S in the glass vial was analyzed by gas chromatography.
Supplementary Figure S4. (a) H2S production by rCSE in the presence of various concentrations of 1 was measured by gas chromatography. A solution of 30 μg/mL rCSE, 100 μM PLP and 1.5 mM cysteine in 30 mM HEPES buffer (pH 7.4) was incubated at r.t. for 60 min. Error bars represent ±S.D. (n = 4). (b) Inhibitory activity of 1 (mean ± S.E.). H2S was detected by gas chromatography. Error bars represent ± S.D. (n = 4).

For a further test, the target named is T1, human CSE (hCSE) (Homo sapiens, UniProt P32929).
T1 construct: expressed in transfected cells; host or cells: HEK293T
Nature of the test: hCSE inhibition in lysate of HEK293T cells expressing hCSE, HSip-1. Particulars: mean ± S.E., read-out: IC50, inhibitory activity towards hCSE in cell lysate. Here is the method: We first examined whether or not 1 inhibits human CSE (hCSE) in cell lysates. We prepared the lysate of HEK293T cells expressing hCSE, and added 1.5 mM cysteine, 100 μM PLP, 1 μM HSip-1 and various concentrations of 1 to it. Based on fluorescence measurements, the IC50 value of 1 for hCSE was calculated to be 26 ± 2 µM, which is similar to the value for rCSE measured in HEPES buffer (Fig. 4b). […] We also confirmed that all amino acid residues of rCSE involved in the recognition of 1 are conserved in hCSE (Supplementary Fig. S10).
10 µL of 1.5 mM cysteine solution in 30 mM HEPES (pH 7.4) was added to 10 µL of solution containing 300 µg/mL cell lysate of HEK293T cells expressing hCSE, 100 µM PLP, 1 µM HSip-1, 0.005% tween 20 and various concentrations of the inhibitor (0.5% DMSO as a cosolvent). The mixture was incubated at 37 °C for 3 h and the fluorescence intensity of HSip-1 was measured with a microplate reader.

The next test deals with T2, rat CSE (rCSE) (Rattus norvegicus, UniProt P18757).
T2 construct: His-tag (C); made in house; host or cells: E. coli BL21
Briefly: rCSE inhibition, H2S detection by fluorescence of HSip-1. As for the experimental part:
The developed assay system employs a plate reader to detect H2S production by CSE as a fluorescence signal in a solution containing 30 μg/mL rat CSE (rCSE), 1 μM HSip-1, 100 μM pyridoxal-5′-phosphate (PLP) and 1.5 mM cysteine (a substrate) in a 384-well plate format (Fig. 1b). A large amount of rCSE was expressed in E. coli and purified on a Ni Sepharose 6 Fast Flow module. We then performed screening of a chemical library consisting of 161,600 compounds (from the Drug Discovery Initiative, the University of Tokyo) for CSE inhibitors (Fig. 1c). […] Then, a confirmation test for repeatability (n = 4) of the 160 compounds selected in the 1st screening was performed to exclude false-positives. In this step, we also excluded cysteine-reactive compounds by changing the addition order of the rCSE and cysteine (substrate) solutions. In other words, in the 1st screening, the enzyme solution was firstly added to each library compound, while in the confirmation test for repeatability of the hit compounds in the 1st screening, we firstly added the cysteine solution to each compound. This enabled us to identify and exclude cysteine-reactive compounds, based on their reaction with the added cysteine. These procedures left 80 compounds showing both more than 40% inhibition at 10 µM and similar % inhibition of rCSE irrespective of the addition order of the rCSE and cysteine solutions. In the 2nd screening, we examined the reactivity of these 80 compounds with H2S using an H2S donor[17] to exclude H2S-reactive compounds. […] In this assay, we selected 13 compounds which were non-reactive to H2S, but one was relatively unstable and two of them were the same compound, so that 11 compounds were finally selected. These compounds included some hydrazine and hydrazide derivatives, so we performed titration assay of the selected 11 compounds together with 9 commercially available hydrazine and hydrazide compounds (Supplementary Fig. S3) and calculated the half-maximal (50%) inhibitory concentration (IC50) of each compound.
The fluorescence intensity of HSip-1 was measured (λex = 490 nm, λem = 510 nm) with a microplate reader (EnVision, Perkin Elmer).
10 µL of 1.5 mM cysteine solution in 30 mM HEPES (pH 7.4) was added to 10 µL of solution containing 30 µg/mL rCSE, 100 µM PLP, 1 µM HSip-1, 0.005% tween 20 and the test compound (0.5% DMSO as a cosolvent). The mixture was incubated at 25 °C for 3 h and the fluorescence intensity of HSip-1 was measured with a microplate reader.

Another test concerns MGL. Briefly: MGL inhibition, HSip-1 fluorescence. The settings on record: 30 µM. Here is the method:
The selectivity of 1, 2 and PAG for rCSE over other RSS-producing enzymes, CBS and 3MST, was examined (Fig. 4a). CBS is a PLP-dependent enzyme, like CSE, and produces H2S from cysteine and homocysteine as substrates. 3MST is also an H2S-producing enzyme, but is not PLP-dependent and uses 3-mercaptopyruvate as a substrate. The amount of H2S produced by CBS or 3MST was evaluated in the presence or absence of the inhibitor by measuring the fluorescence intensity of HSip-1. […] We also examined the inhibitory activity towards two other PLP-dependent enzymes, MGL and ALT. MGL metabolizes L-methionine to α-ketobutyric acid, methanethiol and ammonia, and is inhibited by PAG[14]. MGL also produces H2S from homocysteine as a substrate, and this activity of MGL can be measured by fluorescence detection with HSip-1. […] The enzymatic activity of ALT can be assessed by means of a coupled assay using the reduction of pyruvate to L-lactate with lactate dehydrogenase and NADH and measuring the change in absorption of NADH.
10 µL of 200 µM homocysteine in 30 mM HEPES (pH 7.4) was added to 10 µL of a solution containing 20 µg/mL MGL (Sigma-Aldrich), 100 µM PLP, 1 µM HSip-1, 0.005% tween 20 and various concentrations of the inhibitor (0.5% DMSO as a cosolvent). The mixture was incubated at 25 °C for 100 min and the fluorescence intensity of HSip-1 was measured with a microplate reader.

T2 sequence (P18757 whole entry): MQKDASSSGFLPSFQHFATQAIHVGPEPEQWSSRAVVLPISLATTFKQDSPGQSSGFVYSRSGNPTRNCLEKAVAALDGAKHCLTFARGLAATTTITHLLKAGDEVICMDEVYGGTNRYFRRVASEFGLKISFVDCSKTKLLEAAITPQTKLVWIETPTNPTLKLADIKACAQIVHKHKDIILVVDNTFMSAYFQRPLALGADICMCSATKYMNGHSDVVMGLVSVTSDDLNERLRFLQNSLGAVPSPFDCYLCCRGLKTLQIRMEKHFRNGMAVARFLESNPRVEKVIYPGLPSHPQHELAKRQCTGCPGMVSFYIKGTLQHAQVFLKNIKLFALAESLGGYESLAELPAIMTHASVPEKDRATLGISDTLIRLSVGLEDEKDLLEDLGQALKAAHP
T1 sequence (P32929 whole entry): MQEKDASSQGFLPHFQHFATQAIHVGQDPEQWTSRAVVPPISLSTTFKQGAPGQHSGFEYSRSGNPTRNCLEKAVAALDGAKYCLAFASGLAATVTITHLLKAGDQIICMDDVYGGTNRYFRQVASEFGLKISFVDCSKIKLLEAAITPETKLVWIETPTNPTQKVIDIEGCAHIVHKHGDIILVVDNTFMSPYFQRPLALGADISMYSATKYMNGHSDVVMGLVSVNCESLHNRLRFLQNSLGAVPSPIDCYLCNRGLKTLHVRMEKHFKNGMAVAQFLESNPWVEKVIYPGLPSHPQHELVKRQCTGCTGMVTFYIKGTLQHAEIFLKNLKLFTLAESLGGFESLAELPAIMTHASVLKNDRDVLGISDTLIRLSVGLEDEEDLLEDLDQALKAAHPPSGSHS
rCSE, sequence (P18757 whole entry): as the sequence (P18757 whole entry) above

What is called IC50 is the point on the concentration scale where inhibition reaches its midpoint. In the case of `NNC(=O)C(N)=O` [Compound 1, oxamic hydrazide], the IC50 is 23 ± 6 µM at rCSE; 26 ± 2 µM at human CSE (hCSE); 13 ± 1 µM at rat CSE (rCSE) (fluorescence assay with HSip-1, 1.5 mM cysteine, 100 μM PLP, mean ± S.E., read-out: IC50, inhibitory activity towards rCSE). The “selectivity for CSE among the compounds examined (1, 2, PAG)” value on rat CSE (rCSE) (versus CBS, 3MST, MGL and ALT) was “highest selectivity for CSE”. Besides, in the test on MGL, the “inhibitory activity towards MGL / selectivity for CSE over MGL” value was “high selectivity for CSE over MGL and ALT”.
